Source: US10307352B2, “Low oil compositions comprising a 4-substituted resorcinol and a high carbon chain ester” (Johnson & Johnson Consumer Inc., priority 2012, dated 2019)

test system: IL-8 cytokine release; assay: IL-8 assay: TNFα-induced IL-8 cytokine release from topically treated epidermal equivalents (EPI 200 HCF); assay type: cell-based, human; settings: ester added to 4-hexyl resorcinol-containing composition; result in words
Experimental: An IL-8 assay was performed on the compositions of Example I to investigate the release of pro-inflammatory mediators in human epithelial cells as follows.
Epidermal equivalents (EPI 200 HCF), multilayer and differentiated epidermis consisting of normal human epidermal keratinocytes, were purchased from MatTek (Ashland, Mass.). Upon receipt, epidermal equivalents were incubated for 24 hours at 37° C. in maintenance medium without hydrocortisone. Equivalents were topically treated (2 mg/cm^2) with formulation in example 1 for 2 hours before exposure to 100 ng/mL of Tumor Necrosis Factor-α (TNFα, available from Sigma-Aldrich of St Louis, Mo.). Equivalents were incubated for 4 hours at 37° C. with maintenance medium then supernatants were analyzed for IL-8 cytokine release using commercially available kits (Upstate Biotechnology, Charlottesville, Va.). Percent Reduction in IL-8 was calculated for the compositions relative to Comparative Composition C1 (without ester): Percent Reduction=[1−(Valuesample/Valuebase)]×100 where Valuesample was the IL-8 level of the composition tested and Valuebase was the IL-8 value of Comparative Composition C1.
Additional IL-8 Assays were performed as described in Example II. Compositions (described in Table 2) containing 4-hexyl resorcinol with different esters, each present at 3% by weight, were compared with Composition 6 according to the invention containing 3% by weight pentaerythritol tetraethylhexanoate.

Compound | boost in the activity (IL-8 inhibition) of 4-hexyl resorcinol over compositions without the ester
CCCCCCC(=O)OCC(C)(C)COC(=O)CCCCCC [neopentyl glycol diheptanoate] | only a modest boost or no boost at all
octyldodecyl neopentanoate | substantial boost
isononyl isonanoate | only a modest boost or no boost at all
CCCCC(CC)C(=O)OCC(COC(=O)C(CC)CCCC)(COC(=O)C(CC)CCCC)COC(=O)C(CC)CCCC (stereo not shown) [pentaerythritol tetraethylhexanoate] | substantial boost
